Laboratory results as given in patent US20240390404A1, “ANTI-HUMAN NOROVIRUS AGENT” (KEIO UNIVERSITY, priority 2018, published 2024).

Tests used:
[1] = system: VLP of norovirus GII. 4; experiment: Binding of AF488-labeled VLPs of norovirus GII.4 to the surface of 2fp-fucose-treated 2D organoid; format: cell-based, human norovirus; details: 2fp-fucose 0, 8, 40, 200, 1,000 μM, 4 treatment days
Description: In the Example, a nucleotide sequence (AB447456) encoding a structural protein domain of norovirus GII. 4 was incorporated into a baculovirus, and the sequence was expressed in insect cells (SF9 cells). The expression product was used in the Example.
Separately, VLPs of norovirus GII. 4 were labeled with AF488 (Alexa Fluor 488; green phosphor) and purified. The thus-prepared labeled VLPs were added to the 2fp-fucose-treated 2D organoid, and a state of binding of VLPs to the surface of the 2fp-fucose-treated 2D organoid was observed. Similar to the case of UEA-1, the 2fp-fucose concentration in the treatment was 0, 8, 40, 200, and 1,00 0 μM (for 4 treatment days). […] When the 2fp-fucose concentration exceeded 40 μM, definite reduction in VLP adsorption on the surface of 2D organoid was observed (FIG. 3(b)). FIG. 3(b) includes monochrome photographic images.

[2] = system: fucose-modified proteins including HBGA on the surface of 2D organoid; experiment: HBGA / fucose-modified protein expression on the surface of 2D organoid (binding of FITC-labeled UEA-1); format: cell-based, human; details: 2fp-fucose 0, 8, 40, 200, 1,000 μM, 4 continuous days
Description: The 2D organoid was subjected to a 2fp-fucose treatment (0, 8, 40, 200, and 1,000 μM) for 4 continuous days. Reduction of fucose-modified proteins including HBGA formed on the cell surfaces was investigated by checking binding of FITC (phosphor)-labeled UEA-1 (ulex europaeus agglutinin-1).

[3] = system: human norovirus GII. 4 strain or GII. 6 strain; experiment: Effect of treatment with 2fp-fucose or 6a-fucose after differentiation, on infection and reinfection (RNA titer by real-time RT-PCR); format: cell-based; details: fucose analog 200 μM added on day 5, infection on day (5+2), 3 days culturing
Description: (a) The 2D organoid was disseminated to a 96-well plate. After completion of differentiation induction, two fucose analogs (i.e., 2fp-fucose and 6a-fucose) were each added on day 5 to a concentration of 200 μM, to thereby provide addition groups. The results are shown in FIG. 14(a) and FIG. 14(b), respectively. A non-addition group (untreated group) was also provided. Subsequently, the medium was removed from the wells on day (5+2), and the plate was washed. Then, infection with the GII. 4 strain or the GII. 6 strain was performed.
After the infection treatment, the human norovirus remaining in the medium was removed together with the medium, and the plate was washed thrice with a new medium. After washing, the aforementioned active ingredients were each added to the new medium to a concentration of 200 μM (addition groups), and no addition was performed with respect to the untreated (i.e., non-addition) group. Culturing was performed for 3 days. A portion (10 μL) of the medium was sampled from each well, and the samples were centrifuged at 10,000 g for 10 minutes, to thereby remove cell precipitates. The amount of human norovirus genomic RNA in the supernatant (1 μL) was determined through real-time RT-PCR.
In the test system, the effect of the anti-norovirus agent of the present invention provided after human norovirus infection was estimated on the basis of the following study. Specifically, among the fucose analog-treated 2D organoid cells, the living cells on growth day 3 (i.e., most of them were not infected with human norovirus, by virtue of the effect of the fucose analog) were subjected to a secondary infection operation (i.e., reinfection). The effect of the fucose analog on the reinfection was investigated.
In a specific procedure, the addition groups were prepared through the same procedure as employed in (a) above. The primarily infected cells were cultured in the presence of the fucose analog (200 μM) for 3 days, and the medium was removed from each culture system. After completion of washing, the cells were infected again with human norovirus, and then the virus was removed together with the medium. After completion of the next washing, a medium containing the fucose analog (200 μM) (represented by Reinf+2f-fuc or Reinf+6a-fuc), or a fucose analog-free medium (represented by Reinf−2f-fuc or Reinf−6a-fuc) was added thereto, and culturing was performed for further 3 days. Similar to the above case, the amount of human norovirus released to the supernatant was determined as an RNA titer. In the graphs, the two bars on the right side correspond to (Reinf+2f-fuc and Reinf+6a-fuc) or (Reinf−2f-fuc and Reinf−6a-fuc).

[4] = system: human norovirus GII.3 (TCH2004 strain); experiment: Human norovirus proliferation inhibition in 2D organoid after 2fp-fucose treatment, GII.3 strain; format: cell-based; details: 3 days treatment before infection, days 3 and 6 after infection
Description: Feces of a human norovirus-infected patent contains a large amount of infectious human norovirus. Thus, the feces of a human norovirus-infected patient is suspended in distilled water or the like to a final concentration of about 10%, to thereby prepare a “10% feces suspension.” The 10% feces suspension is about 10-fold diluted with an ENRA medium. The diluted suspension is added to each of the aforementioned wells having the 2D organoid (5 μL/well) and subjected to incubation for about 3 hours, to thereby proliferate human norovirus. As a result of verification, it has been confirmed that human norovirus proliferates to about 100,000 times the initial count through the culture system employing the 2D organoid.
In the Example, there were tested strains of human norovirus obtained from feces of human norovirus infection patients through the aforementioned procedure and stocked before the test. Specifically, three strains belonging to the genetic group 2 (GII) which accounts for 80 to 90% of the infected patients were selected as test targets. The isolated strain lineages included in GII (FIG. 1) were GII. 6 belonging to “Lineage 1,” GII. […]
The effect of 2fp-fucose treatment on proliferation of human norovirus was investigated for each lineage of norovirus. […] 4, and the viral proliferation amount was determined on days 3 and 6 after infection (FIG. 4).

SMILES: CC(=O)OC1O[C@@H](C)[C@@H](OC(C)=O)[C@@H](OC(C)=O)[C@@H]1F (stereo partly drawn) [2fp-fucose, (3S,4R,5R,6S)-3-fluoro-6-methyltetrahydro-2H-pyran-2,4,5-triyl triacetate]
- VLP binding amount on the surface of 2D organoid [1]: decrease in a concentration-dependent manner
- amount of α-link fucose including HBGA on the surface of the 2D organoid (UEA-1 binding) [2]: decrease in a concentration-dependent manner
- rise in RNA titer (proliferation of human norovirus) in the addition group [3]: no rise in RNA titer
- rise in RNA titer of the untreated group with respect to the administration system [3]: ≥ 10 fold
- concentration of complete viral proliferation inhibition [4]: ≥ 40 µM
